Experimental data reported in patent US6512009B1, “Combination for the treatment of alcohol and drug dependence containing an opioid antagonist and a NMDA receptor complex modulator” (Lipha, priority 1998, dated 2003).
Where two headings read alike, the source gives them in different places.

How the values were obtained:
ethanol dependent rats = assay: Voluntary ethanol intake in ethanol dependent (alcohol preferring) rats, free choice between 10% ethanol solution and water; format: in vivo, Long Evans rats
Text: Ethanol dependent rats were selected as previously described (Boismare F., Daoust M., Moore N., Saligaut C., Chadelaud M., Chrétien P., Durlach J., Lhuintre J. P., A homotaurine derivative reduces the voluntary intake of ethanol by rats: are cerebral GABA receptors involved?, Pharm. Biochem. Behav., 21, 787-789, 1984).
Adult male Long Evans rats weighing 180±20 g at the beginning of the experiment were obtained from “Centre d'élevage Janvier” (France). The rats were housed in individual cages and had free access to food (UAR, France standard diet). They were kept with an ambient temperature of 21° C. and a 12 hr/12 hr light-dark photoperiod. […] Every other day, fluid intakes and body weights were measured, the drinking bottles were refilled and randomly rotated. Food consumption was also measured each week be weighting food pellets. […]
All the drugs were prepared as saline (NaCl 0.9%) solutions and animals were daily i.p. injected with: acamprosate 100 mg/kg, naltrexone 10 mg/kg, acamprosate 100 mg/kg+naltrexone 10 mg/kg or saline 1 ml/200 g body weight. […] Alcohol intakes were expressed as gram of absolute alcohol drunk per kilo of body weight per day (g.kg.d) for alcohol.
FIG. 1 represents means±sem of ethanol intake, expressed as gram of absolute alcohol during each period of pre-treatment, treatment and post-treatment in all groups of rats. […]

[1] = test system: alcohol dependent patients; conditions: used together with supportive therapy; cited from earlier work

| SMILES | Ethanol intake (ethanol dependent rats; acamprosate 100 mg/kg daily i.p., 14 days treatment period, p<0.008) | Ethanol intake (ethanol dependent rats) | Rate of relapse to heavy drinking [1] |
| --- | --- | --- | --- |
| CC(=O)NCCCS(=O)(=O)O [acamprosate] | significantly decreased |  |  |
| O=C1CC[C@@]2(O)[C@H]3Cc4ccc(O)c5c4[C@@]2(CCN3CC2CC2)[C@H]1O5 [naltrexone] |  | significantly decreased | reduce the rate of relapse to heavy drinking |
